We go through 47 compounds from patent US20240246941A1, “SUBSTITUTED 4-(3-AMINOPROP-1-YL)AMINOQUINOLINE ANALOGS AS MODULATORS OF MELANOMA-ASSOCIATED ANTIGEN 11 UBIQUITIN LIGASE” (ST. JUDE CHILDREN'S RESEARCH HOSPITAL, INC., priority 2020, published 2024).

Sequence of MAGE-A11:PCF11 (P43364 218-429): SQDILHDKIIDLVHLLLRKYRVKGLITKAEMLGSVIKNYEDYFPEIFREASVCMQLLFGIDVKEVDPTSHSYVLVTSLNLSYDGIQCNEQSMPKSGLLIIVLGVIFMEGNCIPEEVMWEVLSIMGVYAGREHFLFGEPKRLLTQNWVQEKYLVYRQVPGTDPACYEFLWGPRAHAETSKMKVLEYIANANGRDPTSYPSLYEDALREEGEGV

The target in the first assay is interaction between GST-MAGEA11 MHD and FAM-PCF11_4 peptide (MAGE-A11:PCF11) (Homo sapiens (Human), UniProt P43364). In words: TR-FRET dose response competition assay for disruption of MAGE-A11:PCF11 binding. Particulars: Table 8, representative compounds; read-out: TR-FRET IC50. From the text: TR-FRET Assays and High-throughput Screen. Terbium-anti-GST antibody, 1 M Tris pH 7.5 1 M MgCl2 and 1 M DTT were purchased from Invitrogen (Carlsbad, CA), BSA was purchased from Sigma (St. Louis, MO). Dimethyl sulfoxide (DMSO) was purchased from Fisher Scientific (Pittsburgh, PA). Black 384-well low volume plates and 384-well polypropylene compound plates were purchased from Corning Incorporated (Tewksbury, MA). The St. Jude FDA drug and Bioactive library (11,293 chemicals), Drug-like library (10,073 chemicals) and Lead-like library (10,041 chemicals) were custom assembled and purchased from commercial sources including Sigma, Microsource (Gaylordsville, CT), selleckchem (Houston, TX), ChemDiv (San Diego, CA), ChemBridge (San Diego, CA), Enamine (Monmouth Jct., NJ), and Life Chemicals (Niagara-on-the-Lake, ON, Canada). They were arrayed (10 mM in DMSO) in 384-well polypropylene compound plates with columns 1, 2, 13 and 14 empty which were reserved for controls.
Sequence of interaction between GST-MAGEA11 MHD and FAM-PCF11_4 peptide (MAGE-A11:PCF11) (P43364 218-429): as above
The TR-FRET assay buffer with a formula of 50 mM Tris pH 7.5, 20 mM MgCl2, 0.1 mg/ml BSA and 1 mM DTT was freshly prepared before each experiment. All TR-FRET assays were performed in black 384-well plates with 20 μl/well assay volume in the TR-FRET assay buffer at room temperature (approximately 25° C.). All peptides or compounds were solubilized in DMSO. To test the competitive activity of peptides or compounds against the interaction between GST-MAGEA11 MHD and FAM-PCF11_4 peptide, 10 μl/well peptide or compound at specified concentration was dispensed into a black 384-well low volume plate, followed by 5 μl/well FAM-PCF11_4 (800 nM), 5 μl/well Tb-anti-GST (20 nM) and GST-MAGEA11 MHD (20 nM). The assay components in each well was then mixed by shaking the plate on an IKA MTS 2/4 digital microtiter plate shaker (IKA Works; Wilmington, NC, USA) at 900 RPM for 1 minute. The plate was further centrifuged in an Eppendorf 5810 centrifuge with an A-4-62 swing-bucket rotor (Eppendorf AG, Hamburg, Germany) at 201 g (1000 rpm) for 30 seconds. The plate was then incubated for 90 min with a lid to avoid light exposure to the assay components. After incubation, the fluorescent emission signals at 520 nm and 490 nm channels of individual wells were measured with a PHERAstar FS plate reader (BMG Labtech; Durham, NC, USA) by using a 340 nm excitation filter, 100 μs delay time, and 200 μs integration time. The TR-FRET fluorescence emission ratio (TR-FRET signal) for each well was presented as 10 000×520 nm/490 nm, which was used directly for curve fitting, or further converted to % Inhibition based on the respective positive and negative controls. The graphic software GraphPad Prism 4.81 (GraphPad Software; La Jolla, CA, USA) was used to generate curves and derive IC50 values of tested peptides or compounds, if applicable.
TR-FRET inhibitory activity characterization of a panel of PCF11 peptides against the interaction between GST-MAGEA11 MHD and FAM-PCF11_4 was performed as follows. In a 20 μl/well assay volume, dilutions of PCF11_1 to PCF11_8 peptides (concentrations ranged from 3.1 nM to 100 μM for peptides PCF11_4, PCF11_5, PCF11_6 and PCF11_8 in a 1-to-2 dilution pattern for 16 concentration levels, and ranged from 48.9 nM to 100 μM for peptides of PCF11_1, PCF11_2, PCF11_3 and PCF11_7 in a 1-to-2 dilution pattern for 12 concentration levels), 200 nM FAM-PCF11_4, 5 nM Tb-anti-GST and 5 nM GST-MAGEA11 were mixed together and incubated for 90 min before the TR-FRET signal for each well was measured. The final DMSO concentration was 1.1% (v/v). […] The signal of each peptide-treated well (Signalpeptide) was normalized to the positive and negative controls to derive % inhibition of the peptide at a specific concentration with equation 1. Where applicable, the % Inhibition data were fit into a Sigmoidal dose response equation to derive IC50 values.
TR-FRET screen for identifying MAGEA11 small molecule inhibitors was performed as follows.
A general note: In TR-FRET formats the signal depends on donor and acceptor labels being close together.
Usually IC50 stands for the point on the concentration scale where inhibition reaches its midpoint. On to `COc1ccc(F)cc1CNCCCNc1ccnc2cc(C3CCCCC3)ccc12` [SJ000311265], for which the concentration for half-maximal inhibition (IC50) was 24.2 µM. For the compound `COc1cc(Cc2ccc3c(NCCCNCc4cc(F)ccc4OC)ccnc3c2)cc(OC)c1` [SJ000311313], the half-maximal inhibitory concentration (IC50) stood at 33.8 µM.

In a further assay the target is MAGE-A11:PCF11 (Homo sapiens (Human), UniProt P43364). Kind of assay: TR-FRET single point screening at 15 μM. Type of assay: binding. More on the design: unit not given here. Particulars: single point TR-FRET screening at 15 μM against MAGE-A11:PCF11. In outline:
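Competition TR-FRET: compounds at final 15 μM mixed with 200 nM FAM-PCF11_4, 5 nM GST-MAGEA11 and 5 nM Tb-anti-GST in Tris pH 7.5/MgCl2/BSA/DTT buffer, room temperature, 90 min. Emission ratio 520/490 nm (340 nm excitation) expressed as % inhibition relative to positive and negative controls.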
As for `COc1ccc(C(F)(F)F)cc1CN(CCCCNc1ccnc2cc(Cl)ccc12)Cc1ccccc1` [SJ000520444], the TR-FRET signal was determined as 31.82. With `CCCN(CCCNc1c2ccc(Cl)cc2nc2ccc(OC)cc12)Cc1ccc(OC)c(OC)c1` [SJ000520957], the TR-FRET signal is given as −175.5. `COc1ccc2ncc(S(=O)(=O)c3ccccc3)c(N3CCN(c4ccccc4F)CC3)c2c1` [SJ000315263] gave a TR-FRET signal of −252.5.

Compound `CCCN(CCCNc1c2ccc(Cl)cc2nc2ccc(OC)cc12)CCc1ccccc1` [SJ000520962] came in with a TR-FRET signal of −591.7. Consider `COc1ccc(CNCCCNc2c3ccc(Cl)cc3nc3ccc(OC)cc23)cc1` [SJ000523033], for which the TR-FRET signal is reported as −338.9. In the case of `CCc1ccc(S(=O)(=O)c2cnc3ccccc3c2N2CCN(C)CC2)cc1` [SJ000278939], the TR-FRET signal was found to be 11.58. The compound `CCN1CCN(c2c(S(=O)(=O)c3ccc(C)cc3)cnc3ccc(Cl)cc23)CC1` [SJ000083966] yielded a TR-FRET signal of −4.358. `O=[N+]([O-])c1ccc(CN(CCCCNc2ccnc3cc(Cl)ccc23)Cc2ccccc2)cc1` [SJ000361202] showed a TR-FRET signal of 15.25. The same measure, in the same setting: next, `COc1ccc2nc3cc(Cl)ccc3c(NCCCNCc3cccc(C(F)(F)F)c3)c2c1` [SJ000520990]: −408.1; `CN(C)c1cc(NC(=O)CNC(C)(C)CC(C)(C)C)c2ccccc2n1` [SJ000111678]: 10.62. In turn, `CCOc1ccc2ncc(S(=O)(=O)c3ccccc3)c(N3CCN(C)CC3)c2c1` [SJ000083948] had a TR-FRET signal of −3.938. For `Clc1ccc2c(NCCCCN(Cc3ccccc3)Cc3ccoc3)ccnc2c1` [SJ000312685], the TR-FRET signal is 14.9. As for `Cc1ccc2ncc(S(=O)(=O)c3ccccc3)c(N3CCN(c4ccccc4)CC3)c2c1` [SJ000083973], the TR-FRET signal is listed as −29.7. The same measure, in the same setting: next, `COc1ccc(N2CCN(c3c(S(=O)(=O)c4ccccc4)cnc4ccc(C)cc34)CC2)cc1` [SJ000083981]: −37.97; `CCCN(CCCNc1c2ccc(Cl)cc2nc2ccc(OC)cc12)Cc1cn(C)c2ccccc12` [SJ000522964]: −162.2; `Clc1ccc2c(NCCCCN(CCOCc3ccccc3)Cc3ccccc3)ccnc2c1` [SJ000357543]: −15.92. Compound `COc1ccc2ncc(S(=O)(=O)c3ccccc3)c(N3CCN(C)CC3)c2c1` [SJ000083947] registered a TR-FRET signal of −2.094. On the same count and under the same terms, next, `COc1ccc2ncc(S(=O)(=O)c3ccccc3)c(N3CCN(c4ccccc4)CC3)c2c1` [SJ000083974]: −133; `COc1ccc(N2CCN(c3c(S(=O)(=O)c4ccc(C)c(C)c4)cnc4ccc(F)cc34)CC2)cc1` [SJ000117073]: −13.26; `CCOc1ccc2ncc(C(=O)c3ccc(C)cc3)c(N3CCN(CC)CC3)c2c1` [SJ000247284]: −14.25. `CCCN(CCCNc1c2ccc(Cl)cc2nc2ccc(OC)cc12)Cc1ccccc1` [SJ000520925] showed a TR-FRET signal of −127.9.

Still in this assay, the particulars now being: single point TR-FRET screening of quinoline compounds against MAGE-A11:PCF11; 15 μM.
Compound `CCC(CC)CNCCCNc1ccnc2cc(Cl)ccc12` [SJ000361103] showed a TR-FRET signal of 16.55. `CCCCCN(CCCNc1ccnc2cc(Cl)ccc12)Cc1ccccc1` [SJ000361173] yielded a TR-FRET signal of 26.56. In turn, `CCCN(CCC)CCCNc1ccnc2cc(C(F)(F)F)ccc12` [SJ000361250] returned a TR-FRET signal of 15.68. As to `CCCN(CCCNc1c2ccc(Cl)cc2nc2ccc(OC)cc12)Cc1ccc(Cl)c([N+](=O)[O-])c1` [SJ000522738], the TR-FRET signal is on record as −71.03.

`CCCCCCN(CCC)CCCNc1ccnc2cc(C(F)(F)F)ccc12` [SJ000523083] came in with a TR-FRET signal of 34.95.

For `COC(=O)CCCCCN(CCCNc1ccnc2cc(Cl)ccc12)Cc1ccccc1` [SJ000520429], the TR-FRET signal is 17.14. In the case of `CCOC(=O)c1cnc2ccc(C(=O)OC)cc2c1NCCCN1CCOCC1` [SJ000279665], the TR-FRET signal turned out to be 10.71. The compound `CCCN(CCCNc1ccnc2cc(C(F)(F)F)ccc12)CC(C)CC` (centres unmarked) [SJ000523081] had a TR-FRET signal of 22.28.

As for `CCCN(CCCNc1c2ccc(Cl)cc2nc2ccc(OC)cc12)CC1CCOC1` (centres unmarked) [SJ000575149], the TR-FRET signal was −35.94. For the compound `CCCN(CCCNc1ccnc2cc(C(F)(F)F)ccc12)Cc1ccc(N(C)C)cc1` [SJ000523077], the TR-FRET signal is listed as 23.71. Take `CCCN(CCCNc1ccnc2cc(Cl)ccc12)Cc1nccs1` [SJ000357454]: the TR-FRET signal came to 11.96. `CCCN(CCCNc1ccnc2cc(C(F)(F)F)ccc12)Cc1cc2ccccc2o1` [SJ000520479] showed a TR-FRET signal of −20.41. As to `CCC(C)CNCCCNc1ccnc2cc(Cl)ccc12` (centres unmarked) [SJ000361104], the TR-FRET signal is 9.822.

With `COc1ccc(CN(CCCNc2ccnc3cc(Cl)ccc23)Cc2ccccc2)cc1OC` [SJ000522742], the TR-FRET signal is listed as −0.5383.

With `CCCN(CCCNc1c2ccc(Cl)cc2nc2ccc(OC)cc12)Cc1ccc(F)c(F)c1` [SJ000520942], the TR-FRET signal amounted to 0.9703. In turn, `Clc1ccc2c(NCCCN(Cc3ccccc3)Cc3cccc4c3OCO4)ccnc2c1` [SJ000357598] displayed a TR-FRET signal of 3.49. On the same count and under the same terms, the result for `COc1ccc(Oc2ccc3c(NCCCNCc4ccco4)ccnc3c2)cc1` [SJ000311218] reads 36.25.

`CCCN(CCCNc1ccnc2cc(Cl)ccc12)Cc1cn(C)c2ccccc12` [SJ000522995]: the TR-FRET signal is recorded as −1.532. As to `CCCN(CCCNc1ccnc2cc(Cl)ccc12)Cc1ccccc1` [SJ000357431], the TR-FRET signal was found to be 19.14. Still for that read-out and setting: the result for `O=[N+]([O-])c1cccc(CN(CCCNc2ccnc3cc(Cl)ccc23)Cc2ccccc2)c1` [SJ000361178] reads 17.02; that for `Fc1cccc(C(F)(F)F)c1CN(CCCNc1ccnc2cc(Cl)ccc12)Cc1ccccc1` [SJ000520467], 22.01. The compound `CCCN(CCCNc1c2ccc(Cl)cc2nc2ccc(OC)cc12)Cc1ccc(-c2ccccc2)cc1` [SJ000522740] showed a TR-FRET signal of −74.01. `CCCN(CCCNc1c2ccc(Cl)cc2nc2ccc(OC)cc12)Cc1csc2ccccc12` [SJ000522970] showed a TR-FRET signal of −51.69.

As for `Clc1ccc2c(NCCCN(Cc3ccccc3)Cc3ccccn3)ccnc2c1` [SJ000312678], the TR-FRET signal is −3.851.
